From publication PMC7893776, “Selecting an anti-malarial clinical candidate from two potent dihydroisoquinolones” (Malaria Journal, 2021)
Blank lines part the entries; values can stand above or below the compound they belong to.

Tests used:
Assay type in all cases: in vitro ADME
[1] = Microsomal stability, dog; details: dog microsomes; for CLint in vitro: independent replicate to Table 4; for CLint in vivo: scaled up using PBSF
Experimental: (§1) The metabolic stability assay was performed by incubating compounds individually (0.8, 4, or 20 µM) with mouse, rat, dog and human liver microsomes (Fisher, 0.5 mg/mL protein concentration) at 37 °C. The metabolic reaction was initiated by the addition of a NADPH-regenerating system and quenched at various time points by the addition of acetonitrile according to a published method.
(§2) The remaining concentration of each compound was measured as a ratio of peak area to the internal standard. The log peak area ratio was plotted vs. time (h), and the slope was determined to calculate the elimination rate constant [k = (− 2.303) * slope]. If deviation from first order kinetics was evident, only the initial linear portion of the plot was used to determine the rate constate, k. The half-life (h) was calculated as t1/2 = 0.693/k. Intrinsic clearance in vitro was calculated as CLintin vitro = (1000)*(0.693/t1/2*60)/0.5, where microsomal concentration in the reaction solution was 0.5 mg/mL; 1000 and 60 are scaling factors for volume (µL) and time (min), respectively. The intrinsic in vitro clearance was scaled to the intrinsic in vivo clearance using physiology based scaling factor (PBSF): CLint in vivo= CLint in vitro *PBSF: (microsome protein/gram liver) * (gram liver/kg b.w.), with PBSF: 47 (mouse), 47(rat), 58 (dog), 32 (human); and liver weight proportions: 54.9 (mouse), 36.6 (rat), 32.9 (dog) 25.7 (human).

[2] = Microsomal stability, rat; details: rat microsomes; for CLint in vitro: independent replicate to Table 4; for CLint in vivo: scaled up using PBSF
Experimental: as §1, §2

[3] = Microsomal stability, mouse; details: mouse microsomes; for CLint in vitro: independent replicate to Table 4; for CLint in vivo: scaled up using PBSF
Experimental: as §1, §2

[4] = Microsomal stability, human; details: human microsomes; for CLint in vitro: independent replicate to Table 4; for CLint in vivo: scaled up using PBSF
Experimental: as §1, §2

CLint ([1]; 0.8 µM): 10.9 ± 1.5 µl/min/mg protein
t1/2 ([1]; 0.8 µM): 2.2 ± 0.4 h
CLint in vitro ([1]; 0.8 µM): 9.8 ± 0.4 µl/min/mg protein
CLint in vivo ([1]; 0.8 µM): 14.1 ± 0.5 mL/min/kg
CLint in vitro ([1]; 4 µM): 9.5 ± 0.3 µl/min/mg protein
CLint in vivo ([1]; 4 µM): 13.7 ± 0.5 mL/min/kg
CLint in vitro ([1]; 20 µM): 6.0 ± 0.4 µl/min/mg protein
CLint in vivo ([1]; 20 µM): 8.6 ± 0.6 mL/min/kg
CLint ([2]; 0.8 µM): < 7 µl/min/mg protein
t1/2 ([2]; 0.8 µM): > 4 h
CLint in vitro ([2]; 0.8 µM): <7 µl/min/mg protein
CLint in vivo ([2]; 0.8 µM): <11.7 mL/min/kg
CLint in vitro ([2]; 4 µM): <7 µl/min/mg protein
CLint in vivo ([2]; 4 µM): <11.7 mL/min/kg
CLint in vitro ([2]; 20 µM): <7 µl/min/mg protein
CLint in vivo ([2]; 20 µM): <11.7 mL/min/kg
CLint ([3]; 0.8 µM): 32.1 ± 2.1 µl/min/mg protein
t1/2 ([3]; 0.8 µM): 0.8 ± 0.1 h
CLint in vitro ([3]; 0.8 µM): 30.6 ± 1.4 µl/min/mg protein
CLint in vivo ([3]; 0.8 µM): 71.7 ± 3.4 mL/min/kg
CLint in vitro ([3]; 4 µM): 26.9 ± 0.6 µl/min/mg protein
CLint in vivo ([3]; 4 µM): 63.0 ± 2.1 mL/min/kg
CLint in vitro ([3]; 20 µM): 10.5 ± 0.4 µl/min/mg protein
CLint ([4]; 0.8 µM): 61.7 ± 13.2 µl/min/mg protein
t1/2 ([4]; 0.8 µM): 0.4 ± 0.1 h
CLint in vitro ([4]; 0.8 µM): 52.4 ± 1.1 µl/min/mg protein
CLint in vivo ([4]; 0.8 µM): 47.2 ± 1.0 mL/min/kg
CLint in vitro ([4]; 4 µM): 40.4 ± 0.9 µl/min/mg protein
CLint in vivo ([4]; 4 µM): 36.4 ± 0.8 mL/min/kg
CLint in vitro ([4]; 20 µM): 25.3 ± 0.4 µl/min/mg protein
CLint in vivo ([4]; 20 µM): 22.7 ± 0.3 mL/min/kg
SMILES: N#Cc1cc(NC(=O)[C@@H]2c3ccccc3C(=O)N(CC(F)(F)F)[C@H]2c2cccnc2)ccc1F [(-)-SJ733]

CLint ([1]; 0.8 µM): < 7 µl/min/mg protein
t1/2 ([1]; 0.8 µM): > 4 h
CLint ([2]; 0.8 µM): < 7 µl/min/mg protein
t1/2 ([2]; 0.8 µM): > 4 h
CLint ([3]; 0.8 µM): < 7 µl/min/mg protein
t1/2 ([3]; 0.8 µM): > 4 h
CLint ([4]; 0.8 µM): < 7 µl/min/mg protein
t1/2 ([4]; 0.8 µM): > 4 h
SMILES: N#Cc1cc(NC(=O)[C@@H]2c3ccccc3C(=O)N(CC(F)(F)F)[C@H]2c2cn[nH]c2)ccc1F [(−)-SJ311]
